Results published in patent US20090054394A1, “POLYMORPHISMS IN MGST3 ARE ASSOCIATED WITH ELEVATED ALAT LEVELS AFTER XIMELAGATRAN TREATMENT” (priority 2005, published 2009).

System: alanine aminotransferase (ALAT) levels
Assay: Clinical trials, longer-term ximelagatran treatment: alanine aminotransferase (ALAT) elevation
Type: in vivo, human
Excerpt: Phase III clinical trials have been performed using fixed doses of melagatran and ximelagatran for the prevention of VTE in hip or knee replacement surgery. In addition, clinical trials have been performed using ximelagatran for the treatment and long-term secondary prevention of VTE, and for the prevention of stroke in patients with non-valvular atrial fibrillation. Ximelagatran has also been tested for secondary thrombosis prophylaxis post-myocardial infarction/acute coronary syndrome (ACS).
Alanine aminotransferrase (ALAT) is an enzyme mostly expressed in the liver (EC 2.6.1.2). It is also called serum glutamate pyruvate transaminase (SGPT) or alanine transaminase (ALT). This enzyme is release into the plasma by liver cell death, which is a normal event. However, when liver cell death increases, ALAT levels rise above the normal range. The spill-over of this enzyme into blood is routinely measured as a marker of abnormal liver-cell damage. For example, alcoholic or viral hepatitis will increase ALAT levels, as will severe congestive heart failure. ALAT is also markedly raised in hepatitis and other acute liver damage. An elevated ALAT in the presence of normal levels of plasma alkaline phosphatase helps distinguish liver disease caused by liver-cell damage from diseases caused by problems in biliary ducts. Elevations of ALAT are normally measured in multiples of the upper limit of normal (ULN), with a reference range of 15-45 U/L in most laboratories. In 1987, in a study of 19,877 healthy Air Force recruits, only 99 (0.5%) had confirmed ALAT elevations (as reviewed in Green & Flamm (2002) Gastroenterology 123:1367-1384).
The increase in ALAT values with ximelagatran, usually occurred within the first 6 months of treatment and were mainly asymptomatic. […] Subject to the future regulatory approval of ximelagatran, regular liver function testing (LFT) using an appropriate algorithm may be required if ximelagatran is used for treatment periods exceeding a month. […]

CCOC(=O)CN[C@@H](C(=O)N1CC[C@H]1C(=O)NCc1ccc(/C(N)=N\O)cc1)C1CCCCC1 [ximelagatran, EtOOC—CH2—(R)Cgl-Aze-Pab-OH]
patients exhibiting ALAT 3-fold or more above the upper limit of normal (≧3×ULN) (longer-term treatment (>35 days), 1.2% in the comparator groups): 7.9% | reversibility of the increases in ALAT (regardless of whether treatment was continued or discontinued): reversible in most patients | time of occurrence of the increase in ALAT values (usually, time from start of treatment): ≤ 6 months
